Source: patent publication US7109243B2 (IRM LLC, priority 2003, dated 2006)

Key:
Cathepsin S = Cathepsin S (Homo sapiens, UniProt P25774); assay: Cathepsin S inhibition assay (fluorogenic peptide substrate); assay type: biochemical; details: Table II, compounds of Formula I; read-out: Ki Cat. S
Experimental: “Inhibition constant”, Ki, is the dissociation constant of the enzyme-inhibitor complex, or the reciprocal of the binding affinity of the inhibitor to the enzyme. […] The inhibited rates are then fit by nonlinear regression to the following equation: […]
The assumption being made for the classical inhibition described above is that the free inhibitor concentration is equal to the total inhibitor concentration.
Kinetic measurements are performed in a total reaction volume of 30 μl in 384-well microtiter plates. […] The reactions are initiated by adding the substrate, acetyl-histidine-proline-valine-lysine-amino carbamoyl coumarin, to a final concentration of 50 μM. The rate of substrate hydrolysis is measured by monitoring the increase in fluorescence at an excitation wavelength of 380 nm and an emission wavelength of 450 nm that results from cleavage of the aniline bond in the substrate by the enzyme.

Cathepsin K = molecular target: T1, Cathepsin K (Homo sapiens, UniProt P43235); assay: Cathepsin K inhibition assay (fluorogenic peptide substrate); selectivity ratio vs cathepsin S; assay type: biochemical; details: ratio of cathepsin K inhibition constant to cathepsin S inhibition constant; Table II
T1 sequence (P43235 115-329): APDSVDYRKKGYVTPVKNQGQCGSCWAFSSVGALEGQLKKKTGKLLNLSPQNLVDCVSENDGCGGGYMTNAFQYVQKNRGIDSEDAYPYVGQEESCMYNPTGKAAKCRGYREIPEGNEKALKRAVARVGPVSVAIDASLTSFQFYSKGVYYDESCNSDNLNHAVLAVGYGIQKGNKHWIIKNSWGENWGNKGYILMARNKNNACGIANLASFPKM
Experimental: The optimal substrate for cathepsin K, acetyl-lysine-histidine-proline-lysine-amino carbamoyl coumarin, was identified from screening a combinatorial library of fluorogenic peptide substrates (Harris, J. L., B. J. Backes, et al., Proc Natl Acad Sci USA 2000, 97(14), 7754-9). Kinetic measurements are performed in a total reaction volume of 30 μl in 384-well microtiter plates. […] The reactions are initiated by adding the substrate, acetyl-lysine-histidine-proline-lysine-amino carbamoyl coumarin, to a final concentration of 40 μM. The rate of substrate hydrolysis is measured by monitoring the increase in fluorescence at an excitation wavelength of 380 nm and an emission wavelength of 450 nm that results from cleavage of the aniline bond in the substrate by the enzyme. The apparent inhibition constants for the compounds are determined from the enzyme progress curves ([…]. Elrod, et al., Anal Biochem 2000, 286(1), 45-50) and are then used to calculate the inhibition constants for competitive inhibitors. Selectivity for cathepsin S in the presence of cathepsin isozymes was determined by the ratio of the cathepsin isozyme inhibition constant of a compound of the present invention to the cathepsin S inhibition constant of the same compound.

Cathepsin S, sequence (P25774 115-331, species assumed): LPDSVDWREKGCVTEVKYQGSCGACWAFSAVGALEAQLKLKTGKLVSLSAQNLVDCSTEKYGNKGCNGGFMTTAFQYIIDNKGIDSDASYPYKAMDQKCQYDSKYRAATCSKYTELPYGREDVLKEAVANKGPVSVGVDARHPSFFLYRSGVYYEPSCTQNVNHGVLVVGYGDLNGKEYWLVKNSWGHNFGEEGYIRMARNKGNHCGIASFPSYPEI

COc1ccc(NCCNC(=O)[C@H](Cc2ccccc2)NC(=O)Nc2c(C)cccc2C(C)(C)C)cc1 [Compound 102, (S)-2-[3-(2-tert-Butyl-6-methyl-phenyl)-ureido]-N-[2-(4-methoxy-phenylamino)-ethyl]-3-phenyl-propionamide]
Ki (Cathepsin S): < 100 nM
Selectivity for Cat. S over Cat. K (Cathepsin K): ++ (++, >100)

COc1ccc(NCCNC(=O)[C@H](CC2CCCCC2)NC(=O)c2ccc3nc(N)sc3c2)cc1 [Compound 187, (S)-2-Amino-benzothiazole-6-carboxylic acid {2-cyclohexyl-1-[2-(4-methoxy-phenylamino)-ethylcarbamoyl]-ethyl}-amide]
Ki (Cathepsin S): < 100 nM
Selectivity for Cat. S over Cat. K (Cathepsin K): + (+, >10)

COc1ccc(NCCNC(=O)[C@H](Cc2ccc(Br)cc2)NC(=O)c2cccc(C)c2)cc1 [Compound 241, (S)-N-{2-(4-Bromo-phenyl)-1-[2-(4-methoxy-phenylamino)-ethylcarbamoyl]-ethyl}-3-methyl-benzamide]
Ki (Cathepsin S): < 100 nM
Selectivity for Cat. S over Cat. K (Cathepsin K): +++ (+++, >1000)

COc1ccc(NCCNC(=O)[C@H](Cc2ccc(-c3ccc(CO)cc3)cc2)NC(=O)c2cccc(C)c2)cc1 [Compound 282, (S)-N-{2-(4′-Hydroxymethyl-biphenyl-4-yl)-1-[2-(4-methoxy-phenylamino)-ethylcarbamoyl]-ethyl}-3-methyl-benzamide]
Ki (Cathepsin S): < 1000 nM
Selectivity for Cat. S over Cat. K (Cathepsin K): ++ (++, >100)

COc1ccc(NCCNC(=O)C(NC(=O)c2cccc(C)c2)c2ccc(Cl)cc2Cl)cc1 (stereo not shown) [Compound 222, N-{(2,4-Dichloro-phenyl)-[2-(4-methoxy-phenylamino)-ethylcarbamoyl]-methyl}-3-methyl-benzamide]
Ki (Cathepsin S): < 100 nM
Selectivity for Cat. S over Cat. K (Cathepsin K): +++ (+++, >1000)

COc1ccc(NCCNC(=O)[C@H](CC2CCCCC2)NC(=O)c2cccc(-c3ccc(Cl)cc3)c2)cc1 [Compound 175, (S)-4′-Chloro-biphenyl-3-carboxylic acid {2-cyclohexyl-1-[2-(4-methoxy-phenylamino)-ethylcarbamoyl]-ethyl}-amide]
Ki (Cathepsin S): < 100 nM
Selectivity for Cat. S over Cat. K (Cathepsin K): +++ (+++, >1000)

COc1ccc(NCCNC(=O)[C@H](Cc2ccccc2)NC(=O)Nc2ccc(Oc3ccccc3)cc2)cc1 [Compound 89, (S)-N-[2-(4-Methoxy-phenylamino)-ethyl]-2-[3-(4-phenoxy-phenyl)-ureido]-3-phenyl-propionamide]
Ki (Cathepsin S): < 1000 nM
Selectivity for Cat. S over Cat. K (Cathepsin K): + (+, >10)

CC(C(=O)NC(CC1CCCCC1)C(=O)NCCNc1ccc(F)cc1)c1ccc(F)cc1 (mixture of isomers) [Compound 320, N-(S)-{2-cyclohexyl-1-[2-(4-fluoro-phenylamino)-ethylcarbamoyl]-ethyl}-2-(R,S)-(4-fluoro-phenyl)-propionamide]
Ki (Cathepsin S): < 100 nM
Selectivity for Cat. S over Cat. K (Cathepsin K): ++ (++, >100)

COc1ccc(NCCNC(=O)[C@H](CC2CCCCC2)NC(=O)C2(c3ccccc3)CC2)cc1 [Compound 158, (S)-1-Phenyl-cyclopropanecarboxylic acid {2-cyclohexyl-1-[2-(4-methoxy-phenylamino)-ethylcarbamoyl]-ethyl}-amide]
Ki (Cathepsin S): < 100 nM
Selectivity for Cat. S over Cat. K (Cathepsin K): ++ (++, >100)

COc1ccc(NCCNC(=O)[C@H](CCc2ccccc2)NC(=O)c2cccc(C)c2)cc1 [Compound 206, (S)-N-{1-[2-(4-Methoxy-phenylamino)-ethylcarbamoyl]-3-phenyl-propyl}-3-methyl-benzamide]
Ki (Cathepsin S): < 1000 nM
Selectivity for Cat. S over Cat. K (Cathepsin K): ++ (++, >100)

O=C(NCCNc1ccc(OC(F)(F)F)cc1)[C@H](CC1CCCCC1)NC(=O)[C@@H](O)c1ccccc1 [Compound 58, 3-Cyclohexyl-2-(S)-(2-(S)-hydroxy-2-phenyl-acetylamino)-N-[2-(4-trifluoromethoxy-phenylamino)-ethyl]-propionamide]
Ki (Cathepsin S): < 100 nM
Selectivity for Cat. S over Cat. K (Cathepsin K): ++ (++, >100)
